Structures can show the parent of a compound that is named as a salt.
What was measured:
Set-up in all cases: species or system human
[1] = system: GPMVs generated from HeLa cells; experiment: Tmisc measurements (temperature scan of % phase separated GPMVs); conditions: 1 μM C6 ceramide or 10 μM TLCK, 2 independent experiments
Description: GPMVs were generated from HeLa cells and either labelled with NBD-DSPE and DiI as described above (TLCK experiments) or labelled with DiI-C12 (C6-cermide experiments). They were then treated with 1 μM C6 ceramide (Sigma Aldrich) or 10 μM TLCK (Cayman) for 1-2 h, mounted in a chamber formed from two coverslips separated by a silicon spacer in the continued presence of drug or an equivalent volume of DMSO (final concentration=0.1 mol %), and allowed to settle for 1 h prior to being imaged.
Tmisc measurements for GPMVs treated with C6-ceramide were performed using a Zeiss LSM 510 confocal microscope. […] DiI-C12 fluorescence was excited using the 543 nm line of a HeNe laser and images were collected at 1× digital zoom. […] For these datasets, the number of phase separated GPMVs was scored manually. […]
Tmisc measurements for GPMVs treated with TLCK were performed using a Zeiss A880 confocal microscope. […] NBD-DSPE fluorescence was excited using a 458 Argon laser line and detected using a 458/548 dichroic and 482-614 nm band pass filter. DiD fluorescence was excited using a 633 nm HeNe laser and emission was collected using a 633/698.5 dichroic and a 638-759 nm band pass filter. […] For these datasets, the percentages of phase separated GPMVs were scored using the “colocalization” method using the MATLAB algorithm described above. […]

[2] = system: GPMVs from HeLa cells; experiment: Assay robustness, SSMD* based on % phase separated GPMVs; conditions: for SSMD* based on percentage of phase separated GPMVs: 10 mM (so in the source) vs DMSO, mean±SD, n=3; for SSMD* effect size class: classification per Zhang, 2011
Description: GPMVs were prepared as described above and incubated for 2 hours at RT. They were then seeded into a flat bottom, black-walled 96-well plates (Greiner Bio-One, Kremsmunster, Austria) coated with 0.1% bovine serum albumin and pre-loaded in a checkerboard pattern with DMSO, 10 mM TLCK, or 10 mM C6 ceramide (FIG. 12A). GPMVs were imaged using the ImageXpress Micro XL automated imager using a Nikon 40× super plan fluor ELWD objective and analyzed using the software described above to determine the percentage of phase separated vesicles in each well (FIG. 12B). An estimate for robust strictly standardized mean difference (SSMD*) (Zhang, X. D., Genomics 2007, 89 (4), 552-611; Zhang, X. D., et al., J Biomol Screen 2011, 16 (7), 775-85) was then calculated based on the percentage of phase separated vesicles per well as reported in the NBD-DSPE channel according to the following equation: […]
Here, XP and XN represent the medians of the percentage of phase separated vesicles for the positive controls (C6 ceramide or TLCK) and negative control (DMSO), respectively, whereas śP and śN correspond to the absolute deviations from the median for the positive and negative controls. Three independent GPMV preparations were analyzed on separate days to evaluate reproducibility (FIG. 12C).

[3] = system: GPMVs derived from HeLa cells; experiment: Ten-point dose response of re-ordered hits in GPMVs; conditions: for percentage of phase separated vesicles as a function of increasing concentration: freshly made reordered stocks
Description: Compounds identified in the initial screens as potential hits were re-ordered and their identity verified by mass spectrometry by the Vanderbilt Chemical Synthesis Core. Ten-point dose response curves using ˜1:2 serial dilutions were generated producing a range of final concentration of 30 nM to […] and backfilled to yield equivalent concentrations of DMSO. Data were collected in duplicate for each concentration. Two independent dose response experiments were performed.

Row | SMILES | change in Tmisc relative to DMSO [1] | SSMD* based on percentage of phase separated GPMVs [2] | SSMD* effect size class [2] | effect on phase preference of NBD-DSPE (Pordered) versus concentration [3] | percentage of phase separated vesicles as a function of increasing concentration [3]
1 | Cc1ccc(S(=O)(=O)N[C@@H](CCCCN)C(=O)CCl)cc1 [TLCK hydrochloride, Nα-Tosyl-Lys Chloromethyl Ketone] | increased Tmisc | 1.34±0.29 | moderate | dose-dependent | systematically increased
2 | CCCCCCCCCCCCC/C=C/[C@@H](O)[C@H](CO)NC(=O)CCCCC [C6 Ceramide (d18:1/6:0)] | lowered Tmisc | 8.84±2.65 | extremely strong | dose-dependent | opposite effect
